Values quoted from earlier work in patent US20110160274A1 (PANACEA BIOTEC LIMITED, priority 2008, published 2011).

Settings: after oral administration of fenofibrate

For `CC(C)(Oc1ccc(C(=O)c2ccc(Cl)cc2)cc1)C(=O)O` [fenofibric acid], which “plasma elimination half life” value is on record?
The value was “about 20 hours”.
